Read-outs that look alike come from different tables or passages of the source.
Columns and labels:
[1] = tested on: croton oil-induced mouse ear inflammation; test: croton oil-induced mouse ear inflammation test; format: in vivo, mouse (adult male Cox ICR mice); settings: 25 μl of 1% ethanolic solution on left ear, 20-28 h and 5-6 h prior to sacrifice; 2% croton oil 4 h prior to sacrifice
Experimental: Two trienamide compositions were tested for anti-inflammatory activity using the croton oil-induced mouse ear inflammation test.
Adult male Cox ICR mice, 20-30 g, were treated on the left ear at 20-28 hours prior to sacrifice and a second time 5-6 hours prior to sacrifice with 25 μl of a 1% ethanolic solution of the test compound. Four hours prior to sacrifice both ears were treated with 25 μl of a 2% solution of croton oil in acetone. Each animal was then placed in individual cages and given food and water ad lib. Animals were sacrificed by cervical dislocation and both ears removed. From these ears, 0.38 cm^2 punch biopsies were taken from the central portion and each biopsy weighed on a Cahn electrobalance.
For each test substance, a group of 10 animals was used. Control groups either had both ears treated with croton oil or just the right ear. It was experimentally determined that a value of 11.0 mg could be assumed for a punch biopsy from a normal untreated ear and still be within the experimental error of the test. Therefore, for the calculation of percent inhibition, a value of 11.0 mg was used. [formula]
This calculation is valid only when no systemic effects are noted as evidenced by comparison of right ears of treated and control groups.
Statistical signifance at the 95% confidence level was determined by the paired test.

[2] = tested on: phenylbenzoquinone-induced writhing; test: phenylquinone writhing assay; format: in vivo, mouse (male mice); settings: oral gavage 3 h before i.p. 0.2% phenylbenzoquinone; 10 minute period; vehicle control 17.4 ± 1.7
Experimental: Three trienamide composition were tested for analgesic and anti-inflammatory activity using the phenylquinone writhing assay.
Groups of eight male mice weighing between approximately 25 and 30 g were dosed orally by gavage with the composition to be tested. Identical groups of mice were dosed with control compositions. Three hours after this initial administration, the mice were injected intraperitoneally with a 0.2% solution of phenylbenzoquinone in aqueous ethanol. The ability of the analgesic compositions tested to relieve the discomfort induced was measured by counting the number of abdominal contractions, or "writhes", occurring in each mouse during a 10 minute period beginning 10 minutes after injection of the phenylbenzoquinone solution.

[3] = tested on: analgesia and inflammation; test: intramuscular administration to human: analgesia and inflammation; format: in vivo; settings: Example III, ethyl oleate/benzyl alcohol, 1.5 ml in 65 kg human
Experimental: The octadecatrienamide is dissolved in the solution combining ethyl oleate and benzyl alcohol, sealed into airtight 5 ml ampoules, and sterilized by autoclaving.
A composition for parenteral administration of N-vanillyl-5Z,8Z,11Z,14Z-eicosatetraenamide is prepared by a substantially similar method.

[4] = tested on: analgesia and inflammation; test: oral administration to human: analgesia and inflammation; format: in vivo
Experimental: A composition for oral administration of N-vanillyl-5Z,8Z,11Z,14Z-eicosatetraenamide is prepared by a substantially similar method.

[5] = tested on: analgesia and inflammation; test: topical administration to human: analgesia and inflammation; format: in vivo; settings: Example VI, 0.4 ml to 80 cm^2 of forearm of 60 kg human
Experimental: The octadecatrienamide is melted to a liquid with slight warming and combined with the other ingredients.
A composition for topical application of N-vanillyl-5Z,8Z,11Z,14Z-eicosatetraenamide is prepared by a substantially similar method.

[6] = tested on: threshold for the perception of pain (hot plate, 55° C.); test: Rodent Hot Plate Test (rats, VL)
[7] = tested on: analgesia and inflammation; test: analgesic and anti-inflammatory activity (general statement); format: in vivo
[8] = toxicity and narcotic side effects (general statement); format: in vivo
[9] = tested on: threshold for the perception of pain (hot plate, 55° C.); settings: unless administered in toxic quantities; cited from earlier work
[10] = tested on: analgesia and inflammation; settings: background, literature on capsaicin; cited from earlier work
[11] = Example IV, sesame oil soft gelatin capsules, two capsules of 225 mg in 60 kg human
[12] = Example V, syrup, one teaspoon in 70 kg adult human

## CC/C=C\C/C=C\C/C=C\CCCCCCCC(=O)NCc1ccc(O)c(OC)c1 [N-vanillyl-9Z,12Z,15Z-octadecatrienamide]
[1]
  % Inhibition: 78.5 ± 31.9%
[2]
  Writhes/10 minutes: 0.4 ± 0.3 Writhes/10 minutes
[3]
  analgesia: produces analgesia
  reduction of inflammation: reduces inflammation
[4]; [11]
  analgesia: producing analgesia
  reduction of inflammation: reducing inflammation
[4]; [12]
  analgesia: producing analgesia
  reduction of inflammation: reducing inflammation
[5]
  analgesia: produces analgesia
  reduction of inflammation: reduces inflammation
[6]; Example X, 20 mg/kg oral in sesame oil, 1 hr post-dose, vehicle 0
  % Animals Analgesic: 70%
[6]; Example X, 20 mg/kg oral in sesame oil, 2 hrs post-dose, vehicle 20
  % Animals Analgesic: 30%
[6]; Example X, 20 mg/kg oral in sesame oil, 3 hrs post-dose, vehicle 0
  % Animals Analgesic: 10%
[6]; Experiment A, 200 mg/kg oral in propylene glycol, 1 hr post-dose, vehicle 20
  % Animals Analgesic: 80%
[6]; Experiment A, 200 mg/kg oral in propylene glycol, 2 hrs post-dose, vehicle 10
  % Animals Analgesic: 40%
[6]; Experiment A, 200 mg/kg oral in propylene glycol, 3 hrs post-dose, vehicle 0
  % Animals Analgesic: 30%
[6]; Experiment B, 200 mg/kg oral in propylene glycol, 1 hr post-dose, vehicle 0
  % Animals Analgesic: 50%
[6]; Experiment B, 200 mg/kg oral in propylene glycol, 2 hrs post-dose, vehicle 20
  % Animals Analgesic: 60%
[6]; Experiment B, 200 mg/kg oral in propylene glycol, 3 hrs post-dose, vehicle 0
  % Animals Analgesic: 20%
[6]; Experiment C, 288 mg/kg oral in propylene glycol, 1 hr post-dose, vehicle 10
  % Animals Analgesic: 50%
[6]; Experiment C, 288 mg/kg oral in propylene glycol, 2 hrs post-dose, vehicle 0
  % Animals Analgesic: 10%
[6]; Experiment C, 288 mg/kg oral in propylene glycol, 3 hrs post-dose, vehicle 0
  % Animals Analgesic: 0%

## CC/C=C\C/C=C\C/C=C\CCCCCCCCCC(=O)NCc1ccc(O)c(OC)c1 [N-vanillyl-11Z,14Z,17Z-eicosatrienamide]
[2]
  Writhes/10 minutes: 0.4 ± 0.3 Writhes/10 minutes
[3]
  reduction of inflammation: substantially similar reduction of inflammation
[4]; [11]
  reduction of inflammation: substantially similar reduction of inflammation
[4]; [12]
  reduction of inflammation: substantially similar reduction of inflammation
[5]
  reduction of inflammation: substantially similar reduction of inflammation
[7]
  analgesic activity / potency compared with aspirin and opioids: analgesic activity comparable to that of the opioids
[8]
  undesirable narcotic side effects (tolerance, physical dependence): does not exhibit undesirable narcotic side effects

## CCCCC/C=C\C/C=C\C/C=C\CCCCC(=O)NCc1ccc(O)c(OC)c1 [N-vanillyl-6Z,9Z,12Z-octadecatrienamide]
[1]
  % Inhibition: 100.7 ± 11.9%
[2]
  Writhes/10 minutes: 0.0 ± 0.0 Writhes/10 minutes
[3]
  reduction of inflammation: substantially similar reduction of inflammation
[4]; [11]
  reduction of inflammation: substantially similar reduction of inflammation
[4]; [12]
  reduction of inflammation: substantially similar reduction of inflammation
[5]
  reduction of inflammation: substantially similar reduction of inflammation

## CC(=O)Nc1ccc(O)cc1 [acetaminophen]
[9]
  activity in the RHP system: little or no activity

## CC(=O)Oc1ccccc1C(=O)O [aspirin]
[9]
  activity in the RHP system: little or no activity

## COc1cc(CNC(=O)CCCCC=CC(C)C)ccc1O [capsaicin, 8-methyl-N-vanillyl-6-nonenamide]
[10]
  analgesia: induces analgesia

## CCCCC/C=C\C/C=C\C/C=C\C/C=C\CCCC(=O)NCc1ccc(O)c(OC)c1 [N-vanillyl-5Z,8Z,11Z,14Z-eicosatetraenamide]
[3]
  analgesia: produces analgesia
  reduction of inflammation: reduces inflammation
[4]; [11]
  analgesia: produces analgesia
  reduction of inflammation: reduces inflammation
[4]; [12]
  analgesia: produces analgesia
  reduction of inflammation: reduces inflammation
[5]
  analgesia: produces analgesia
  reduction of inflammation: reduces inflammation

— patent publication US4898887A, “Compounds and compositions having anti-inflammatory and analgesic activity” (The Procter & Gamble Company, priority 1986, dated 1990)
